Laboratory results from patent US20260001914A1, “MACROCYCLIC PEPTIDES TARGETING KRAS” (Merck Sharp & Dohme LLC, priority 2022, published 2026).
*1 amine or outer side, *2 acyl side, *3 side chain or, on linkers, in order; H or OH if unused. Where a SMILES comes first, the peptide text is derived from it. Bridges are numbered along the chain shown (N, C = ends). [ ]: non-standard residue; d: D form. N(3-imidazol-1-ylpropyl)Gly = O=C(O)CNCCCn1ccnc1; X49 = O=C(O)Cc1cccc(C[C@H](N[*:1])C(=O)[*:2])c1; Ala(pyrimidin-5-yl) = N[C@@H](Cc1cncnc1)C(=O)O; Phe(3-COOH) = N[C@@H](Cc1cccc(C(=O)O)c1)C(=O)O; NMePhe(3-Me) = CN[C@@H](Cc1cccc(C)c1)C(=O)O; NMePhe(4-Me) = CN[C@@H](Cc1ccc(C)cc1)C(=O)O; NMePhe(3-F) = CN[C@@H](Cc1cccc(F)c1)C(=O)O; NMePhe(4-F) = CN[C@@H](Cc1ccc(F)cc1)C(=O)O; Bip = N[C@@H](Cc1ccc(-c2ccccc2)cc1)C(=O)O; X25 = O=C([C@H](Cc1ccc(F)nc1)N[*:1])[*:2]; X27 = Cc1ccc(C[C@H](N[*:1])C(=O)[*:2])cn1; Phe(3-Me) = Cc1cccc(C[C@H](N)C(=O)O)c1; Phe(4-F) = N[C@@H](Cc1ccc(F)cc1)C(=O)O; Phe(4-Me) = Cc1ccc(C[C@H](N)C(=O)O)cc1; 1Nal = N[C@@H](Cc1cccc2ccccc12)C(=O)O; NHCH2CH2SCH2CO = O=C(CSCCN[*:1])[*:2]; Phe(2-F) = N[C@@H](Cc1ccccc1F)C(=O)O; NMe3Pal = CN[C@@H](Cc1cccnc1)C(=O)O; NMeY = CN[C@@H](Cc1ccc(O)cc1)C(=O)O; X1 = O=C(C12CC(CN[*:1])(C1)C2)[*:2]; hTyr = N[C@@H](CCc1ccc(O)cc1)C(=O)O; X53 = C[C@@H](CSCC(=O)[*:2])N[*:1]; NMeR = CN[C@@H](CCCNC(=N)N)C(=O)O; NMeF = CN[C@@H](Cc1ccccc1)C(=O)O; PhLac = O=C(O)[C@@H](O)Cc1ccccc1; 3Pal = N[C@@H](Cc1cccnc1)C(=O)O; 4Pal = N[C@@H](Cc1ccncc1)C(=O)O; d3Pal = N[C@H](Cc1cccnc1)C(=O)O; Cba = N[C@@H](CC1CCC1)C(=O)O; hLys = NCCCCC[C@H](N)C(=O)O; αMeC = C[C@](N)(CS)C(=O)O; NMeA = CN[C@@H](C)C(=O)O; Nle = CCCC[C@H](N)C(=O)O; Nva = CCC[C@H](N)C(=O)O

What follows are compounds tested against KRAS-G12D protein (Homo sapiens, UniProt P01116, G12D) (assay: SOS-mediated nucleotide exchange assay (BODIPY-GDP / Tb-streptavidin TR-FRET)).
Chain of KRAS-G12D protein (P01116 1-188 isoform P01116-2 G12D): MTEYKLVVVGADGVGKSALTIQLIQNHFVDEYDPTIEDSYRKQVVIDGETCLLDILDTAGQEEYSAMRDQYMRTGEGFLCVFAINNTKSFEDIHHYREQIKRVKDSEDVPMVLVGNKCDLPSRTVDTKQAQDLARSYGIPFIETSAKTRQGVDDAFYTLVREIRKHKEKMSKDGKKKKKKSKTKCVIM
Assay type: biochemical

Point of comparison: `CCCC[C@@H]1NC(=O)[C@H](Cc2cccnc2)NC(=O)[C@H](C)N(C)C(=O)[C@H](Cc2ccc(F)cc2)NC(=O)C23CC(CNC(=O)[C@H](Cc4cccnc4)N(C)C(=O)[C@H](CCCC)NC(=O)[C@H](Cc4ccccc4F)NC1=O)(C2)C3` [compound 167, cyclo(Phe4F-NMeA-3Pal-Nle-Phe2F-Nle-NMe3Pal-amBCP)] (cyclo([3Pal][Nle][Phe(2-F)][Nle][NMe3Pal][X1][Phe(4-F)][NMeA])), EC50 0.0999 µM. Against it:
- CCCC[C@@H]1NC(=O)[C@H](Cc2cccnc2)NC(=O)[C@H](C)N(C)C(=O)[C@H](Cc2cccnc2)NC(=O)C23CC(CNC(=O)[C@H](Cc4cccnc4)N(C)C(=O)[C@H](CCCC)NC(=O)[C@H](Cc4ccccc4F)NC1=O)(C2)C3 [compound 163, cyclo(3Pal-NMeA-3Pal-Nle-Phe2F-Nle-NMe3Pal-amBCP)] (cyclo([3Pal][NMeA][3Pal][Nle][Phe(2-F)][Nle][NMe3Pal][X1])) — 31-fold higher, 3.06 µM
- CCCC[C@@H]1NC(=O)[C@H](Cc2cccnc2)NC(=O)[C@H](C)N(C)C(=O)[C@H](Cc2ccc(C)nc2)NC(=O)C23CC(CNC(=O)[C@H](Cc4cccnc4)N(C)C(=O)[C@H](CCCC)NC(=O)[C@H](Cc4ccccc4F)NC1=O)(C2)C3 [compound 164, cyclo(4Me3Pal-NMeA-3Pal-Nle-Phe2F-Nle-NMe3Pal-amBCP)] (cyclo([3Pal][Nle][Phe(2-F)][Nle][NMe3Pal][X1][X27][NMeA])) — 29-fold higher, 2.89 µM
- CCCC[C@@H]1NC(=O)[C@H](Cc2cccnc2)NC(=O)[C@H](C)N(C)C(=O)[C@H](Cc2ccc(F)nc2)NC(=O)C23CC(CNC(=O)[C@H](Cc4cccnc4)N(C)C(=O)[C@H](CCCC)NC(=O)[C@H](Cc4ccccc4F)NC1=O)(C2)C3 [compound 165, cyclo(4F3Pal-NMeA-3Pal-Nle-Phe2F-Nle-NMe3Pal-amBCP)] (cyclo([3Pal][Nle][Phe(2-F)][Nle][NMe3Pal][X1][X25][NMeA])) — 18-fold higher, 1.78 µM
- CCCC[C@@H]1NC(=O)[C@H](Cc2cccnc2)NC(=O)[C@H](C)N(C)C(=O)[C@H](Cc2cccc(C)c2)NC(=O)C23CC(CNC(=O)[C@H](Cc4cccnc4)N(C)C(=O)[C@H](CCCC)NC(=O)[C@H](Cc4ccccc4F)NC1=O)(C2)C3 [compound 166, cyclo(Phe3Me-NMeA-3Pal-Nle-Phe2F-Nle-NMe3Pal-amBCP)] (cyclo([3Pal][Nle][Phe(2-F)][Nle][NMe3Pal][X1][Phe(3-Me)][NMeA])) — 4.5-fold lower, 0.0223 µM
- CCCC[C@@H]1NC(=O)[C@H](Cc2cccnc2)NC(=O)[C@H](C)N(C)C(=O)[C@H](Cc2ccc(O)cc2)NC(=O)C23CC(CNC(=O)[C@H](Cc4cccnc4)N(C)C(=O)[C@H](CCCC)NC(=O)[C@H](Cc4ccccc4F)NC1=O)(C2)C3 [compound 168, cyclo(Y-NMeA-3Pal-Nle-Phe2F-Nle-NMe3Pal-amBCP)] (cyclo(Y[NMeA][3Pal][Nle][Phe(2-F)][Nle][NMe3Pal][X1])) — 4.4-fold higher, 0.44 µM
- CCCC[C@@H]1NC(=O)[C@H](Cc2cccnc2)NC(=O)[C@H](C)N(C)C(=O)[C@H](Cc2ccc(OC)cc2)NC(=O)C23CC(CNC(=O)[C@H](Cc4cccnc4)N(C)C(=O)[C@H](CCCC)NC(=O)[C@H](Cc4ccccc4F)NC1=O)(C2)C3 [compound 169, cyclo(TyrOMe-NMeA-3Pal-Nle-Phe2F-Nle-NMe3Pal-amBCP)] (cyclo([3Pal][Nle][Phe(2-F)][Nle][NMe3Pal][X1]Y(Me)[NMeA])) — 7.6-fold higher, 0.757 µM
- CCCC[C@@H]1NC(=O)[C@H](Cc2cccnc2)NC(=O)[C@H](C)N(C)C(=O)[C@H](Cc2ccc(C)cc2)NC(=O)C23CC(CNC(=O)[C@H](Cc4cccnc4)N(C)C(=O)[C@H](CCCC)NC(=O)[C@H](Cc4ccccc4F)NC1=O)(C2)C3 [compound 170, cyclo(Phe4Me-NMeA-3Pal-Nle-Phe2F-Nle-NMe3Pal-amBCP)] (cyclo([3Pal][Nle][Phe(2-F)][Nle][NMe3Pal][X1][Phe(4-Me)][NMeA])) — within 1.5-fold, 0.0911 µM
- CCCC[C@@H]1NC(=O)[C@H](Cc2cncnc2)NC(=O)[C@H](C)N(C)C(=O)[C@H](Cc2ccccc2)OC(=O)C23CC(CNC(=O)[C@H](Cc4ccc(C)cc4)N(C)C(=O)[C@H](CCCC)NC(=O)[C@H](Cc4ccccc4F)NC1=O)(C2)C3 [compound 171, cyclo(FLac-NMeA-PyrimAla-Nle-Phe2F-Nle-NMePhe4Me-amBCP)] (cyclo([NMeA][Ala(pyrimidin-5-yl)][Nle][Phe(2-F)][Nle][NMePhe(4-Me)][X1][PhLac])) — 5.2-fold lower, 0.0191 µM
- CCCC[C@@H]1NC(=O)[C@H](Cc2cncnc2)NC(=O)[C@H](C)N(C)C(=O)[C@H](Cc2ccccc2)OC(=O)C23CC(CNC(=O)[C@H](Cc4cccc(C)c4)N(C)C(=O)[C@H](CCCC)NC(=O)[C@H](Cc4ccccc4F)NC1=O)(C2)C3 [compound 172, cyclo(FLac-NMeA-PyrimAla-Nle-Phe2F-Nle-NMePhe3Me-amBCP)] (cyclo([NMeA][Ala(pyrimidin-5-yl)][Nle][Phe(2-F)][Nle][NMePhe(3-Me)][X1][PhLac])) — 17-fold lower, 0.00603 µM
- CCCC[C@@H]1NC(=O)[C@H](Cc2cncnc2)NC(=O)[C@H](C)N(C)C(=O)[C@H](Cc2ccccc2)OC(=O)C23CC(CNC(=O)[C@H](Cc4ccc(F)cc4)N(C)C(=O)[C@H](CCCC)NC(=O)[C@H](Cc4ccccc4F)NC1=O)(C2)C3 [compound 173, cyclo(FLac-NMeA-PyrimAla-Nle-Phe2F-Nle-NMePhe4F-amBCP)] (cyclo([NMeA][Ala(pyrimidin-5-yl)][Nle][Phe(2-F)][Nle][NMePhe(4-F)][X1][PhLac])) — 8-fold lower, 0.0125 µM
- CCCC[C@@H]1NC(=O)[C@H](Cc2cncnc2)NC(=O)[C@H](C)N(C)C(=O)[C@H](Cc2ccccc2)OC(=O)C23CC(CNC(=O)[C@H](Cc4cccc(F)c4)N(C)C(=O)[C@H](CCCC)NC(=O)[C@H](Cc4ccccc4F)NC1=O)(C2)C3 [compound 174, cyclo(FLac-NMeA-PyrimAla-Nle-Phe2F-Nle-NMePhe3F-amBCP)] (cyclo([NMeA][Ala(pyrimidin-5-yl)][Nle][Phe(2-F)][Nle][NMePhe(3-F)][X1][PhLac])) — 8.2-fold lower, 0.0122 µM
- CCCC[C@@H]1NC(=O)[C@H](Cc2cncnc2)NC(=O)[C@H](C)N(C)C(=O)[C@H](Cc2ccccc2)OC(=O)C23CC(CNC(=O)[C@H](Cc4ccc(OC)cc4)N(C)C(=O)[C@H](CCCC)NC(=O)[C@H](Cc4ccccc4F)NC1=O)(C2)C3 [compound 175, cyclo(FLac-NMeA-PyrimAla-Nle-Phe2F-Nle-NMeYOMe-amBCP)] (cyclo([NMeA][Ala(pyrimidin-5-yl)][Nle][Phe(2-F)][Nle][NMeY](Me)[X1][PhLac])) — 9.1-fold lower, 0.011 µM
- CCC[C@@H]1NC(=O)[C@H](Cc2ccc(O)cc2)NC(=O)[C@H](CC(C)C)NC(=O)[C@H](Cc2ccc(O)cc2)NC(=O)[C@H](CCCNC(=N)N)N(C)C(=O)[C@H](Cc2ccccc2)NC(=O)CSC[C@H](C(N)=O)NC(=O)[C@H](Cc2ccccc2)N(C)C1=O [compound 176, cyclo(F-NMeR-Y-L-Y-Nva-NMeF-dCl-ClAc)] ({CH2CO}-F[NMeR]YLY[Nva][NMeF][dC]-NH2; thioether N-8) — 24-fold higher, 2.42 µM
- CCCC[C@@H]1NC(=O)[C@H](Cc2ccc(OC)cc2)NC(=O)[C@H](CC2CCC2)NC(=O)[C@@H](Cc2cccnc2)NC(=O)[C@H](CCCNC(=N)N)NC(=O)[C@H](Cc2ccccc2)NC(=O)CSC[C@H](C)NC(=O)[C@H](Cc2ccccc2)N(C)C1=O [compound 180, cyclo(F-R-d3Pal-cBuA-TyrOMe-Nle-NMeF-Smcysteamine-ClAc)] (cyclo([Cba]Y(Me)[Nle][NMeF][X53]FR[d3Pal])) — 2.6-fold lower, 0.0378 µM
- CCCC[C@@H]1NC(=O)[C@H](Cc2ccccc2F)NC(=O)[C@H](CC2CCC2)NC(=O)[C@@H](Cc2cccnc2)NC(=O)CN(CCCn2ccnc2)C(=O)[C@H](Cc2ccccc2)NC(=O)C23CC(CNC(=O)[C@H](Cc4cccnc4)N(C)C1=O)(C2)C3 [compound 181, cyclo(F-IPG-d3Pal-cBuA-Phe2F-Nle-NMe3Pal-amBCP)] (cyclo(F[N(3-imidazol-1-ylpropyl)Gly][d3Pal][Cba][Phe(2-F)][Nle][NMe3Pal][X1])) — 12-fold higher, 1.23 µM
- CCCC[C@@H]1NC(=O)[C@H](Cc2cccnc2)NC(=O)[C@H](CCCNC(=N)N)NC(=O)[C@H](Cc2ccccc2)NC(=O)CSC[C@@](C)(C(=O)N(C)C)NC(=O)[C@H](Cc2cccnc2)N(C)C(=O)[C@H](CCCC)NC(=O)[C@H](Cc2ccccc2F)NC1=O [compound 184, cyclo(F-R-3Pal-Nle-Phe2F-Nle-NMe3Pal-aMeC7-ClAc)] ({CH2CO}-FR[3Pal][Nle][Phe(2-F)][Nle][NMe3Pal][αMeC]-NMe2; thioether N-8) — 7.3-fold higher, 0.728 µM
- CCCC[C@@H]1NC(=O)[C@H](CCCCCN)NC(=O)[C@H](CCCNC(=N)N)NC(=O)[C@H](Cc2ccccc2)NC(=O)CSCCNC(=O)[C@H](Cc2ccccc2)N(C)C(=O)[C@H](CCc2ccc(O)cc2)NC(=O)[C@H](Cc2ccc(-c3ccccc3)cc2)NC1=O [compound 194, cyclo(F-R-hK-Nle-Bip-hY-NMeF-Cysteamine-ClAc)] (cyclo([Bip][hTyr][NMeF][NHCH2CH2SCH2CO]FR[hLys][Nle])) — 45-fold higher, 4.49 µM
- CCCC[C@@H]1NC(=O)[C@H](CCCCN)NC(=O)[C@H](CCCNC(=N)N)NC(=O)[C@H](Cc2cccc3ccccc23)NC(=O)CSCCNC(=O)[C@H](Cc2ccccc2)N(C)C(=O)[C@H](CCCC)NC(=O)[C@H](Cc2cccc(CC(=O)O)c2)NC1=O [compound 196, cyclo(INal-R-K-Nle-Phe3AcOH-Nle-NMeF-Cysteamine-ClAc)] (cyclo([1Nal]RK[Nle][X49][Nle][NMeF][NHCH2CH2SCH2CO])) — 27-fold higher, 2.65 µM
- CCCC[C@@H]1NC(=O)[C@H](CCCCN)NC(=O)[C@H](CCCNC(=N)N)NC(=O)[C@H](Cc2cccc3ccccc23)NC(=O)CSCCNC(=O)[C@H](Cc2ccccc2)N(C)C(=O)[C@H](CCCC)NC(=O)[C@H](Cc2cccc(C(=O)O)c2)NC1=O [compound 197, cyclo(1Nal-R-K-Nle-Phe3COOH-Nle-NMeF-Cysteamine)-ClAc] (cyclo([1Nal]RK[Nle][Phe(3-COOH)][Nle][NMeF][NHCH2CH2SCH2CO])) — 21-fold higher, 2.12 µM
- CCCC[C@@H]1NC(=O)[C@H](Cc2ccncc2)NC(=O)[C@H](CCCNC(=N)N)NC(=O)[C@H](Cc2cccc3ccccc23)NC(=O)CSC[C@H](C(=O)O)NC(=O)[C@H](Cc2ccccc2)N(C)C(=O)[C@H](CCCC)NC(=O)[C@H](Cc2ccc(O)cc2)NC1=O [compound 198, cyclo(INal-R-4Pal-Nle-Y-Nle-NMeF-dC-ClAc)] ({CH2CO}-[1Nal]R[4Pal][Nle]Y[Nle][NMeF][dC]-OH; thioether N-8) — 3-fold higher, 0.299 µM
